The experiment has as its target T1, Axl (Homo sapiens, UniProt P30530).
T1 construct: endogenous in cells; host or cells: HeLa cells
T1 sequence (P30530 26-894): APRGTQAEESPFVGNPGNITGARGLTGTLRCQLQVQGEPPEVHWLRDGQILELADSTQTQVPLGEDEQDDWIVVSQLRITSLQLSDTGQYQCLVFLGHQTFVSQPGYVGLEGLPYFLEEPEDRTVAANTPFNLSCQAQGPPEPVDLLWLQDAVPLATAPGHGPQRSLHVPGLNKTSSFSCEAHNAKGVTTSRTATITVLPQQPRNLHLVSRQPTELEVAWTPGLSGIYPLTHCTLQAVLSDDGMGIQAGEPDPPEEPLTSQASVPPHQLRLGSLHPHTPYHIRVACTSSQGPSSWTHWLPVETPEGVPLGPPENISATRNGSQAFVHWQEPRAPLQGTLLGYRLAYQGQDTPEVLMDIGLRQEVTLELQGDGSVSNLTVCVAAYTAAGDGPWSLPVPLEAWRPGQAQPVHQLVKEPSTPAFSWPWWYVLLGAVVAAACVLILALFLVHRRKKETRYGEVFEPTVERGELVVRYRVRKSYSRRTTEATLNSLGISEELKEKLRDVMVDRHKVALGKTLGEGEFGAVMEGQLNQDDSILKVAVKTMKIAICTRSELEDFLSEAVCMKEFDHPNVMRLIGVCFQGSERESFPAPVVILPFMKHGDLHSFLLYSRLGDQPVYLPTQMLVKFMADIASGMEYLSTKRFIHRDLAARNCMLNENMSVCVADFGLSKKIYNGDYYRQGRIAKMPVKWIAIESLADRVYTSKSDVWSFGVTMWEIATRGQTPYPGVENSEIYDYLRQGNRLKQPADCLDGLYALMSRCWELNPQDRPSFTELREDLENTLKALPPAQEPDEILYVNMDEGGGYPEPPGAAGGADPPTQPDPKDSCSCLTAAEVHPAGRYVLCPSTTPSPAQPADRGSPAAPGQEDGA
In words: Phospho-Akt In-Cell Western Assay (ability to inhibit Axl activity). It counts as cell-based. The conditions noted are these: Hela cells, stimulated by Axl-antibody cross-linking, phospho-Akt chemiluminescence normalized to relative cell number. As to the method: The compounds of the invention were tested in the following assay for their ability to inhibit Axl activity.
Phospho-Akt In-Cell Western Assay
• Cell culture plate: 96 well assay plate (Corning 3610), white, clear bottom, tissue-culture treated. • Cells: Hela cells. • Starvation medium: For Axl stimulation: 0.5% FCS (fetal calf serum) in DMEM, plus Axl/Fc (extracellular domain of AXL fused to immunoglobulin Fc region) (R&D, 154-AL) 500 ng/mL. • For EGF (epidermal growth factor) stimulation: 0.5% FCS in DMEM (Dulbecco's modified Eagles medium). • Poly-L-Lysine 0.01% solution (the working solution): 10 μg/ml, dilute In PBS (phosphate buffered saline). • Axl antibody cross-linking: • 1st: Mouse anti-Axl (R&D, MAB154). • 2nd: Biotin-SP-conjugated AffiniPure goat anti-mouse IgG (H+L) (Jackson ImmunoResearch #115-065-003). • Fixing buffer: 4% formaldehyde in PBS. • Wash buffer: 0.1% TritonX-100 in PBS. • Quenching buffer: 3% H2O2, 0.1% Azide in wash buffer, Azide and hydrogen peroxide (H2O2) are added fresh. • Blocking buffer: 5% BSA in TBST (tris buffered saline plus 0.1% Tween 20). • Primary antibody: Rabbit anti-human Phospho-Akt antibody (Cell Signaling 9271): 1×250 diluted in blocking buffer. • Secondary antibody: HRP (horse radish peroxidase)-conjugated Goat anti-Rabbit secondary, stock solution: Jackson ImmunoResearch (Goat anti-Rabbit HRP, #111-035-144) 1:1 diluted in glycerol, store at −20° C. The working solution: 1×2000 dilution of stock in blocking buffer. • Chemiluminescent working solution (Pierce, 37030): SuperSignal ELISA (enzyme linked immunosorbant assay) Pico Chemiluminescent substrate. • Crystal Violet solution: Stock: 2.5% Crystal violet in methanol, filtered and kept at ambient temperature. The working solution: dilute the stock 1:20 with PBS immediately before use. • 10% SDS: working solution: 5% SDS (sodium dodecylsulfate), diluted in PBS Methods: Day 1:
A 96 well TC (tissue culture treated) plate was coated with 10 μg/mL poly-L-Lysine at 37° C. for 30 min, washed twice with PBS, and air-dried for 5 minutes before cells were added. Hela cells were seeded at 10,000 cells/well and the cells were starved in 100 μL starvation medium containing Axl/Fc for 24 hrs.
The cells were pre-treated with test compounds by adding 100 μL of 2× test compound to the starvation medium on the cells. The cells were incubated at 37° C. for 1 hr before stimulation.
The cells were stimulated by Axl-antibody cross-linking as follows: A 5×1st/2nd Axl antibody mixture was made (37.5 μg/mL 1st/100 μg/mL 2nd) in starvation medium and nutated at 4° C. with thorough mixing for 1-2 hours for clustering. The resulting mix was warmed to 37° C. 50 μL of 5× Axl 1st/2nd of antibody cluster was added to the cells and the cells were incubated at 37° C. for 5 min.
After 5 minutes stimulation, the plate was flicked to remove medium and the plate was tapped onto paper towels. Formaldehyde (4.0% in PBS, 100 μL) was added to fix the cells and the cells were incubated at ambient temperature for 20 min without shaking.
The cells were washed with a plate washer buffer to remove the formaldehyde solution. The plate was flicked to removed excess wash buffer and tapped onto paper towels. Quenching buffer (100 μL) was added to each well and the cells were incubated at ambient temperature for 20 minutes without shaking.
The cells were washed with a plate washer buffer to remove the quenching buffer. Blocking buffer (100 μL) was added and the cells were incubated at ambient temperature for at least an hour with gentle shaking.
The cells were washed with a plate washer buffer and diluted primary antibody (50 μL) was added to each well (blocking buffer was added to the negative control wells instead). The plates were incubated overnight at 4° C. with gentle shaking.
The wash buffer was removed, diluted secondary antibody (100 μL) was added, and the cells were incubated at ambient temperature for 1 hour with gentle shaking. […]
A word on the IC50: it is the concentration at which inhibition is half-maximal. Low values mean greater potency in that assay, high ones weaker potency in that assay. In the case of `CN1CCN(c2ccc(Nc3nc(N)n(-c4cc(-c5ccccc5)c5c(n4)C4CCN5CC4)n3)cc2)CC1` [Compound 35, 1-(1,4-ethano-8-phenyl-1,2,3,4-tetrahydro-1,5-naphthyridin-6-yl)-N^3-(4-(4-methylpiperazin-1-yl)phenyl)-1H-1,2,4-triazole-3,5-diamine], the IC50 was < 1 µM.

Consider `Nc1nc(Nc2ccc(N3CCN(C4CC5CCC4C5)CC3)c(F)c2)nn1-c1cc(-c2ccccc2)c2c(n1)C1CCN2CC1` (stereo not shown) [Compound 36, 1-(1,4-ethano-8-phenyl-1,2,3,4-tetrahydro-1,5-naphthyridin-6-yl)-N^3-(3-fluoro-4-(4-bicyclo[2.2.1]heptan-2-ylpiperazin-1-yl)phenyl)-1H-1,2,4-triazole-3,5-diamine], for which the IC50 is < 1 µM.

For `Nc1nc(Nc2ccc(N3CCN(C4CCCCC4)CC3)c(F)c2)nn1-c1cc(-c2ccccc2)c2c(n1)C1CCN2CC1` [Compound 37, 1-(1,4-ethano-8-phenyl-1,2,3,4-tetrahydro-1,5-naphthyridin-6-yl)-N^3-(3-fluoro-4-(4-cyclohexylpiperazin-1-yl)phenyl)-1H-1,2,4-triazole-3,5-diamine], the IC50 was < 1 µM.

As to `CN1CCN(c2ccc(Nc3nc(N)n(-c4ccc5c(n4)[C@@H]4C[C@H](C5)C4(C)C)n3)cc2)CC1` [Compound 38, 1-(7,7-dimethyl-(6R,8R)6,8-methano-5,6,7,8-tetrahydroquinoline-2-yl)-N^3-(4-(4-methylpiperazin-1-yl)phenyl)-1H-1,2,4-triazole-3,5-diamine], the IC50 was < 1 µM.

On to `CC1(C)[C@H]2Cc3ccc(-n4nc(Nc5ccc(N6CCN(C7CC8CCC7C8)CC6)c(F)c5)nc4N)nc3[C@@H]1C2` (stereo partly drawn) [Compound 39, 1-(7,7-dimethyl-(6R,8R)6,8-methano-5,6,7,8-tetrahydroquinoline-2-yl)-N^3-(3-fluoro-4-(4-bicyclo[2.2.1]heptan-2-ylpiperazin-1-yl)phenyl)-1H-1,2,4-triazole-3,5-diamine], for which the IC50 was > 20 µM.

Consider `Nc1nc(Nc2ccc(N3CCC(N4CCCC4)CC3)c(F)c2)nn1-c1nnc(-c2ccccc2)c2c1C1CCC2C1` (stereo not shown) [Compound 40, 1-(5,8-methano-1-phenyl-5,6,7,8-tetrahydrophthalazine-4-yl)-N^3-(3-fluoro-4-(4-(pyrrolidin-1-yl)piperidin-1-yl)phenyl)-1H-1,2,4-triazole-3,5-diamine], for which the IC50 is < 1 µM.

For the molecule `CN1CCN(C2CCN(c3ccc(Nc4nc(N)n(-c5cc(-c6ccccc6)c6c(n5)C5CCN6CC5)n4)cc3F)CC2)CC1` [Compound 41, 1-(1,4-ethano-8-phenyl-1,2,3,4-tetrahydro-1,5-naphthyridin-6-yl)-N^3-(3-fluoro-4-(4-(4-methylpiperazin-1-yl)piperidin-1-yl)phenyl)-1H-1,2,4-triazole-3,5-diamine], the IC50 is < 1 µM.

With `CN1CCN(c2ccc(Nc3nc(N)n(-c4nnc(-c5ccccc5)c5c4C4CCC5C4)n3)cc2)CC1` (stereo not shown) [Compound 42, 1-(5,8-methano-1-phenyl-5,6,7,8-tetrahydrophthalazine-4-yl)-N^3-(4-(4-methylpiperazin-1-yl)phenyl)-1H-1,2,4-triazole-3,5-diamine], the IC50 is < 1 µM.

Consider `Nc1nc(Nc2ccc(N3CCC(N4CCCC4)CC3)c(F)c2)nn1-c1cc(-c2ccccc2)c2c(n1)C1CCC2C1` (stereo not shown) [Compound 43, 1-(5,8-methano-4-phenyl-5,6,7,8-tetrahydroquinoline-2-yl)-N^3-(3-fluoro-4-(4-(pyrrolidin-1-yl)piperidin-1-yl)phenyl)-1H-1,2,4-triazole-3,5-diamine], for which the IC50 was < 1 µM.

Take `Nc1nc(Nc2ccc(N3CCN(C4CCCCC4)CC3)c(F)c2)nn1-c1cc(-c2ccccc2)c2c(n1)C1CCC2C1` (stereo not shown) [Compound 44, 1-(5,8-methano-4-phenyl-5,6,7,8-tetrahydroquinoline-2-yl)-N^3-(3-fluoro-4-(4-cyclohexylpiperazin-1-yl)phenyl)-1H-1,2,4-triazole-3,5-diamine]: the IC50 fell in the range of 1 to 10 µM.

For the origin of these results see patent US8609650B2, “Bridged bicyclic aryl and bridged bicyclic heteroaryl substituted triazoles useful as Axl inhibitors” (Rigel Pharmaceuticals, Inc., priority 2006, dated 2013).
